Assay results taken from patent US10150793B2, “Antagonists of CB1 receptor” (INSERM (Institut National de la Santé et de la Recherche …, priority 2011, dated 2018).

Test system: TNF-α
Experiment: Increase in plasma TNF-alpha induced by LPS
Format: in vivo, mice
Settings: Mus musculus; mice; compounds 6 mg/kg 15 min before LPS
Experimental: Trunk blood was collected and centrifuged at 3000 rpm for 15 min at 4° C. Plasma was stored at −80° C. until measurement of TNFα was carried out. Plasma TNFα levels were assessed using an ELISA kit, following the manufacturer's instructions (Fisher Scientific, Catalog #E6473C).
In this example the inventors further analyzed the ability of pregnenolone to inhibit the effects of CB1 activation in the context of inflammation and fibrosis. […] TNF-alpha is one of the cellular responses to inflammatory stimuli more involved in promoting fibrosis.
Other pregnenolone derivatives (Table 4) for which the metabolism in downstream active steroids was reduced were tested for their ability to inhibit: 1. effects of the THC-induced cannabinoid tetrade (decrease in body temperature and in locomotor activity, (THC 10 mg/kg, compounds 6 mg/kg 15-30 min before THC) that is recognized as a sound method to evaluate the activation of the CB1 receptor; 2. THC-induced increase in food intake a typical effect of CB1 activation (THC between 0.5 and 1 mg/kg, compounds between 2 and 4 mg/kg 30 min before THC); 3. the increase in TNFalpha induced by LPS, another effects typical of CB1 […] (compounds 6 mg/kg 15 min before LPS). For each compound and each test independent groups of animals were used (at least n=6 per compound/per test).

SMILES	inhibition in vivo at 6 mg/kg
CC[C@H]1CCC2C3CC=C4C[C@@H](O)CC[C@]4(C)C3CC[C@@]21C (some centres unmarked) [Compound 24, 20-Deoxypregnenolone]	34%

Test system: CHO cells
Experiment: Study of metabolism in vitro in CHO cells, steroids in culture medium by GC/MS
Settings: CHO cells
Experimental: Plasma, brain and culture medium levels of pregnenolone (5-Pregnen-3β-ol-20-one), allopregnanolone (3α-hydroxy-5α-pregnan-20-one), epiallopregnanolone (3β-hydroxy-5α-pregnan-ol-20-one), testosterone, and 5α dihydrotestosterone were determined by GC/MS according to the of estraction, purification and quantification protocol described previously (George O, et al., Biol Psychiatry. 2010 68: 956-63, Vallee M, et al., Anal Biochem. 2000, 287:153-66).
The CHO-K1 cell line (#CCL-61, ATCC-LGC, USA) derived as a subclone from the parental CHO cell line initiated from a biopsy of an adult Chinese hamster ovary was used. The CHO-K1 cells were seeded on 24-well plates (#353047, BD Biosciences, USA) to the appropriate concentration (25×10^4 cells/well) in fresh, antibiotic-free medium constituted by 90% DMEM-Glutamax; (#31966-21, Life technologies, USA) and 10% Fetal Bovine Serum (#10270-106, Life technologies, USA).
In this example the inventors further analyzed the metabolism of pregnenolone derivatives using an in vitro test in CHO cells. These cells derived from the ovary have all the enzymes needed to metabolize pregnenolone in down stream steroids.

SMILES	metabolism in downstream active steroids (Reduced metabolism / Metabolized)
CCC1=CC[C@H]2[C@@H]3CC=C4C[C@@H](O)CC[C@]4(C)[C@H]3CC[C@]12C [Compound 6, 5,16-Pregnadien-3β-ol]	Metabolized
CC(=O)C1=CCC2C3CC=C4C[C@@H](O)CC[C@]4(C)C3CC[C@]12C (stereo partly drawn) [Compound 7, 5,16-Pregnadien-3β-ol-20-one]	Metabolized
C[C@@H](O)[C@H]1CCC2C3CC[C@H]4C[C@@H](O)CC[C@]4(C)C3CC[C@@]21C (stereo partly drawn) [Compound 8, 5α-Pregnan-3β,20α-diol]	Metabolized
CC(=O)C1CCC2C3CC[C@H]4C[C@@H](OC(=O)CCC(=O)O)CC[C@]4(C)C3CC[C@]12C (stereo partly drawn) [Compound 10, 5α-Pregnan-3α-ol-20-one hemisuccinate (Allopregnanolone hemisuccinate)]	Metabolized
CC(=O)[C@H]1CCC2C3CC[C@H]4C[C@@H](O)CC[C@]4(C)C3CC[C@@]21C (stereo partly drawn) [Compound 11, 5α-Pregnan-3β-ol-20-one (Epiallopregnanolone)]	Metabolized
C[C@@H](O)[C@H]1CCC2C3CCC4=C[C@@H](O)CC[C@]4(C)C3CC[C@@]21C (stereo partly drawn) [Compound 13, 4-Pregnen-3β,20β-diol]	Metabolized
C[C@@H](O)[C@@]1(O)CCC2C3CCC4=CC(=O)CC[C@]4(C)C3CC[C@@]21C (stereo partly drawn) [Compound 15, 4-Pregnen-17α,20β-diol-3-one]	Metabolized
CC(=O)[C@H]1CCC2C3CCC4=C[C@@H](O)CC[C@]4(C)C3CC[C@@]21C (stereo partly drawn) [Compound 17, 4-Pregnen-3β-ol-20-one]	Metabolized
C[C@@H](O)[C@H]1CCC2C3CCC4=CC(=O)CC[C@]4(C)C3CC[C@@]21C (stereo partly drawn) [Compound 19, 4-Pregnen-20β-ol-3-one]	Metabolized
C[C@@H](O)[C@H]1CCC2C3CC=C4C[C@@H](O)CC[C@]4(C)C3CC[C@@]21C (stereo partly drawn) [Compound 21, 5-Pregnen-3β,20β-diol]	Metabolized
CC(=O)[C@]1(O)CCC2C3CC=C4C[C@@H](O)CC[C@]4(C)C3CC[C@@]21C (stereo partly drawn) [Compound 22, 17α-Hydroxypregnenolone]	Metabolized
CC(=O)[C@]1(O)CCC2C3CC=C4C[C@@H](OC(=O)CCC(=O)O)CC[C@]4(C)C3CC[C@@]21C (stereo partly drawn) [Compound 23, 17α-Hydroxypregnenolone hemisuccinate]	Metabolized
CC[C@H]1CCC2C3CC=C4C[C@@H](O)CC[C@]4(C)C3CC[C@@]21C (some centres unmarked) [Compound 24, 20-Deoxypregnenolone]	Reduced metabolism
C[C@]12CC[C@H](O)CC1=CCC1C2CC[C@@]2(C)C1CC[C@@H]2C(=O)CO (stereo partly drawn) [Compound 26, 5-Pregnen-3β,21-diol-20-one]	Metabolized
CO[C@H]1CC[C@@]2(C)C(=CCC3C2CC[C@@]2(C)C3CC[C@@H]2C(C)=O)C1 (stereo partly drawn) [Compound 33, 3β-Methoxypregnenolone]	Metabolized
CCO[C@H]1CC[C@@]2(C)C(=CCC3C2CC[C@@]2(C)C3CC[C@@H]2C(C)=O)C1 (stereo partly drawn) [Compound 34, 3β-Ethoxypregnenolone]	Metabolized
CC(=O)[C@H]1CCC2C3CC=C4CCCC[C@]4(C)C3CC[C@@]21C (some centres unmarked) [Compound 37, 3-Dehydroxypregnenolone]	Metabolized

SMILES	metabolism in downstream active steroids (Reduced metabolism / Metabolized)
CC(O)C1=CC[C@H]2[C@@H]3CC=C4C[C@@H](O)CC[C@]4(C)[C@H]3CC[C@]12C (stereo partly drawn) [Compound 38, 5,16-Pregnadien-3β,20-diol]	Metabolized
CC(=O)[C@@]1(C)CCC2C3CC=C4C[C@@H](OCc5ccccc5)CC[C@]4(C)C3CC[C@@]21C (stereo partly drawn) [Compound 42, 3β-Benzyloxy-17α-methylpregnenolone]	Reduced metabolism
C[C@]12CC[C@H](O)CC1=CCC1C2CC[C@]2(C)C(=O)CCC12 (stereo partly drawn) [Compound 50, 5-Androsten-3β-ol-17-one (DHEA), reference compound]	Metabolized
C[C@]12CC[C@H]3[C@@H](CCC4=CC(=O)CC[C@@]43C)[C@@H]1CC[C@@H]2C(=O)CO [Compound 52, 4-Pregnen-21-ol-3,20-dione]	Metabolized
CC(=O)[C@H]1CC[C@H]2[C@@H]3CC=C4C[C@@H](OS(=O)(=O)[O-])CC[C@]4(C)[C@H]3CC[C@]12C.[Na+] [Compound 53, Pregnenolone sulfate sodium]	Metabolized
CC(=O)O[C@H]1CC[C@@]2(C)C(=CCC3C2CC[C@@]2(C)C3CC[C@@H]2C(C)=O)C1 (stereo partly drawn) [Compound 55, 3β-Acetoxypregnenolone]	Metabolized
CC(=O)[C@@]1(Cc2ccccc2)CCC2C3CC=C4C[C@@H](OCc5ccccc5)CC[C@]4(C)C3CC[C@@]21C (stereo partly drawn) [Compound 63, 17α-Benzyl-3β-benzyloxypregnenolone]	Reduced metabolism
C=CC[C@]1(C(C)=O)CCC2C3CC=C4C[C@@H](O)CC[C@]4(C)C3CC[C@@]21C (stereo partly drawn) [Compound 64, 17α-Allylpregnenolone]	Metabolized
CC(=O)C1CCC2C3CC=C4C[C@@H](N)CC[C@]4(C)C3CC[C@]12C (stereo partly drawn) [Compound 66, 3β-Aminopregnenolone]	Metabolized
CNC(C)[C@H]1CC[C@H]2[C@@H]3CC=C4C[C@@H](O)CC[C@]4(C)[C@H]3CC[C@]12C (stereo partly drawn) [Compound 67, 20-Methylamino-5-pregnen-3β-ol]	Reduced metabolism
C=CC[C@]1(C(C)=O)CCC2C3CC=C4C[C@@H](OC)CC[C@]4(C)C3CC[C@@]21C (stereo partly drawn) [Compound 69, 17α-Allyl-3β-methoxypregnenolone]	Reduced metabolism
CO[C@H]1CC[C@@]2(C)C(=CCC3C2CC[C@@]2(C)C3CC[C@]2(Cc2ccccc2)C(C)=O)C1 (stereo partly drawn) [Compound 70, 17α-benzyl-3β-methoxypregnenolone]	Reduced metabolism
CCOC1(C(C)=O)CCC2C3CC=C4C[C@@H](O)CC[C@]4(C)C3CC[C@@]21C (some centres unmarked) [Compound 71, 17-Ethoxypregnenolone]	Metabolized
CC(=O)[C@@]1(Cc2ccccc2)CCC2C3CCC4=CC(=O)CC[C@]4(C)C3CC[C@@]21C (stereo partly drawn) [Compound 73, 17α-Benzylprogesterone]	Reduced metabolism
CC(=O)[C@@]1(Cc2ccccc2)CCC2C3CC=C4C[C@@H](F)CC[C@]4(C)C3CC[C@@]21C (stereo partly drawn) [Compound 74, 17α-Benzyl-3β-fluoropregnenolone]	Reduced metabolism
C[C@]12CCC3C(CC[C@@H]4C[C@@H](O)CC[C@]34C)C1CC[C@@H]2C(=O)CO (stereo partly drawn) [Compound 75, 5α-Pregnan-3α,21-diol-20-one]	Metabolized
C[C@]12CCC3C(CC[C@H]4C[C@@H](O)CC[C@]34C)C1CC[C@@H]2C(=O)CO (stereo partly drawn) [Compound 76, 5α-Pregnan 3β,21-diol-20-one]	Metabolized

Molecular target: CB1 receptor (Mus musculus, UniProt P47746)
Experiment: THC-induced cannabinoid tetrad (body temperature, locomotor activity, catalepsy, analgesia)
Format: in vivo, mice
Parameters: tissue Charles River Laboratories (France) (animals); host or cells: living mice, whole animal
Settings: AMG 50 mg/kg ip 30 min before THC

Sequence of CB1 receptor (P47746 whole entry): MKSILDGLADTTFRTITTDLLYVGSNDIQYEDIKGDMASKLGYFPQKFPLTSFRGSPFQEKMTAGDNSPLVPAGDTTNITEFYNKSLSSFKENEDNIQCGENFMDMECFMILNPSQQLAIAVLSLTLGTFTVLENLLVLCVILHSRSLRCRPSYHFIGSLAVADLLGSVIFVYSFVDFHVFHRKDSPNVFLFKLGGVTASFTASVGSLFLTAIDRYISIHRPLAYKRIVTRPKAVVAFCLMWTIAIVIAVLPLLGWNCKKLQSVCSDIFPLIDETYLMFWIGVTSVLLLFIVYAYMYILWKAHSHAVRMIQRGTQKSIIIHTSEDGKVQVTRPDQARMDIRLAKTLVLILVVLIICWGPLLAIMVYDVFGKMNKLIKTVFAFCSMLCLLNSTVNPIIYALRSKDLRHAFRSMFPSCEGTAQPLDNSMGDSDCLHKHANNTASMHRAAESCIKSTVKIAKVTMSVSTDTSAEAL

SMILES	effect on behavioural effects of THC (tetrad)
CCC1(c2ccc(N)cc2)CCC(=O)NC1=O (centres unmarked) [AMG, aminoglutethimide, reference compound]	strongly increased all the behavioural effect of THC

Same assay, conditions: mice; THC 10 mg/kg; compounds 6 mg/kg 15-30 min before THC

SMILES	% Inhibition temperature decrease	% increase in motor activity
CC[C@H]1CCC2C3CC=C4C[C@@H](O)CC[C@]4(C)C3CC[C@@]21C (some centres unmarked) [Compound 24, 20-Deoxypregnenolone]	25%, P < 0.08	33%, P > 0.20
CNC(C)[C@H]1CC[C@H]2[C@@H]3CC=C4C[C@@H](O)CC[C@]4(C)[C@H]3CC[C@]12C (stereo partly drawn) [Compound 67, 20-Methylamino-5-pregnen-3β-ol]	28%, P < 0.05	−20%, P > 0.35
C=CC[C@]1(C(C)=O)CCC2C3CC=C4C[C@@H](OC)CC[C@]4(C)C3CC[C@@]21C (stereo partly drawn) [Compound 69, 17α-Allyl-3β-methoxypregnenolone]	4%, P > 0.39	−49%, P > 0.1
CO[C@H]1CC[C@@]2(C)C(=CCC3C2CC[C@@]2(C)C3CC[C@]2(Cc2ccccc2)C(C)=O)C1 (stereo partly drawn) [Compound 70, 17α-benzyl-3β-methoxypregnenolone]	8%, P > 0.49	2%, P > 0.48
